Literature values in patent publication US20230364199A1, “IMPROVEMENT OF PHYSICAL AND MENTAL WELL-BEING OF PATIENTS WITH HYPOPARATHYROIDISM” (ASCENDIS PHARMA BONE DISEASES A/S, priority 2020, published 2023).

B1: PTH 1-84: PTH polypeptide of SEQ ID NO: 1 (PTH 1-84) (protein, listed as Homo sapiens)
chain: SVSEIQLMHNLGKHLNSMERVEWLRKKLQDVHNFVALGAPLAPRDAGSQRPRKKEDNVLVESHEKSLGEADKADVNVLTKAKSQ

Experiments:
[1] = system: patients with hypoparathyroidism
[2] = system: patients with hypoparathyroidism; conditions: 54 patients, after 1 year of treatment, every other day
[3] = system: adults with chronic hypoparathyroidism; conditions: supplements adjusted to target serum calcium

Molecule | 9-min walk-run test ([1]; seven patients, before and after 3 years of treatment, twice a day) | fatigue and physical endurance described by patients ([1]; several patients, during PTH treatment) | QoL, mental component score and physical component score (RAND 36-Item Health Survey) [2] | QoL (SF-36), between-group differences versus placebo [3]
PTH 1-34: PTH polypeptide of SEQ ID NO: 51 (PTH 1-34) (SVSEIQLMHNLGKHLNSMERVEWLRKKLQDVHNF; human PTH 1-34) | no significant changes | less fatigue and greater physical endurance | – | –
B1 | – | – | improvement in QoL | not statistically significant
